# Test results published in ChEMBL document CHEMBL5325501, “Discovery of BWA-522, a First-in-Class and Orally Bioavailable PROTAC Degrader of the Androgen Receptor Targeting N-Terminal Domain for the Treatment of Prostate Cancer” (J Med Chem, 2023).
# The source made the active and inactive calls. No cut-off for these calls is given here.
# Legend:
# [1] = biological target: T1, von Hippel-Lindau disease tumor suppressor/Androgen receptor (Homo sapiens, UniProt P10275+P40337); experiment: PROTAC activity at VHL/full-length AR in human VCaP cells assessed as induction of AR degradation at 1 uM by Western blot analysis relative to control; type: cell-based
# Target sequence in this assay (P10275 whole entry, looked up): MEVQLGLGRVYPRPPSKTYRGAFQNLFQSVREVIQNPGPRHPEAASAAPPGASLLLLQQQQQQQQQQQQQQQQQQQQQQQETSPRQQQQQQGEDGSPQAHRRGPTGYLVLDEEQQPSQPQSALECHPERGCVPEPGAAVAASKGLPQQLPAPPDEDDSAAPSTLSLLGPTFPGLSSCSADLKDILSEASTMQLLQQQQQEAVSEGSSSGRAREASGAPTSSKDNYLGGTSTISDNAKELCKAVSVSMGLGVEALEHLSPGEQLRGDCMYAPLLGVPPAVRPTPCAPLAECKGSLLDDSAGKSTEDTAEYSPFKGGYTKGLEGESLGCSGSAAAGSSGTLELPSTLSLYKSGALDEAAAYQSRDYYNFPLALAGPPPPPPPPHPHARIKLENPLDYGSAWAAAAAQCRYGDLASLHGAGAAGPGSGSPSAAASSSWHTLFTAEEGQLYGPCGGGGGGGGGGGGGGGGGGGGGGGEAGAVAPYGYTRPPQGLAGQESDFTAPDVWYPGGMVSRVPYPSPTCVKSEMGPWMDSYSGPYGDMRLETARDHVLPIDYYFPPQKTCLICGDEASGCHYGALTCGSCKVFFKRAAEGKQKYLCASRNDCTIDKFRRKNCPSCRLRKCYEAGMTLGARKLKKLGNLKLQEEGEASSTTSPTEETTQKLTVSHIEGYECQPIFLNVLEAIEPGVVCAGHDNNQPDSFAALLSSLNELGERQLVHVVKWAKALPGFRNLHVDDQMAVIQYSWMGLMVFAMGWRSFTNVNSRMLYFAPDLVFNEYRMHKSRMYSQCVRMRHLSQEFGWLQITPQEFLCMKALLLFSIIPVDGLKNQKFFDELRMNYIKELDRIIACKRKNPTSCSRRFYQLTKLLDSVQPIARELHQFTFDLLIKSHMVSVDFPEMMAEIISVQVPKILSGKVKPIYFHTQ
# Target sequence in this assay (P40337 whole entry, looked up): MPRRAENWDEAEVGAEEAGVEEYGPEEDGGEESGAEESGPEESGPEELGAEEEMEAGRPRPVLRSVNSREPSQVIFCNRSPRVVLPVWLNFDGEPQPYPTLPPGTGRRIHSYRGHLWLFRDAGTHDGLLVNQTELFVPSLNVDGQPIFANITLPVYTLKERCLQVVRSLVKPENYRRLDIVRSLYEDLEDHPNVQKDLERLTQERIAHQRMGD
# [2] = biological target: T1, von Hippel-Lindau disease tumor suppressor/Androgen receptor; experiment: PROTAC activity at VHL/full-length AR in human VCaP cells assessed as induction of AR degradation at 5 uM by Western blot analysis relative to control; type: cell-based
# Target sequence in this assay (P10275 whole entry, looked up): as the sequence (P10275 whole entry, looked up) above
# Target sequence in this assay (P40337 whole entry, looked up): as the sequence (P40337 whole entry, looked up) above
# [3] = biological target: T1, von Hippel-Lindau disease tumor suppressor/Androgen receptor; experiment: PROTAC activity at VHL/full-length AR in human LNCaP cells assessed as induction of AR degradation at 1 uM by Western blot analysis relative to control; type: cell-based
# Target sequence in this assay (P10275 whole entry, looked up): as the sequence (P10275 whole entry, looked up) above
# Target sequence in this assay (P40337 whole entry, looked up): as the sequence (P40337 whole entry, looked up) above
# [4] = system: von Hippel-Lindau disease tumor suppressor/Androgen receptor (Homo sapiens), P10275+P40337 [UNDEFINED MUTATION]; experiment: PROTAC activity at VHL/AR-V7 in human VCaP cells assessed as induction of AR degradation at 1 uM by Western blot analysis relative to control; type: cell-based
# [5] = system: von Hippel-Lindau disease tumor suppressor/Androgen receptor (Homo sapiens), P10275+P40337 [UNDEFINED MUTATION]; experiment: PROTAC activity at VHL/AR-V7 in human VCaP cells assessed as induction of AR degradation at 5 uM by Western blot analysis relative to control; type: cell-based
# [6] = biological target: T1, von Hippel-Lindau disease tumor suppressor/Androgen receptor; experiment: PROTAC activity at VHL/full-length AR in human LNCaP cells assessed as induction of AR degradation at 5 uM by Western blot analysis relative to control; type: cell-based
# Target sequence in this assay (P10275 whole entry, looked up): as the sequence (P10275 whole entry, looked up) above
# Target sequence in this assay (P40337 whole entry, looked up): as the sequence (P40337 whole entry, looked up) above
# CWR22R [7] = experiment: Cytotoxicity against human 22Rv1 cells assessed as cell death at 5 uM; type: toxicity, cell-based
# PC-3 [8] = experiment: Cytotoxicity against human PC-3 cells assessed as cell death at 5 uM; type: toxicity, cell-based; details: pc-3, 5 µM
# CWR22R [9] = experiment: Cytotoxicity against human 22Rv1 cells assessed as cell death at high concentration incubated for 24 hrs; type: toxicity, cell-based
# [10] = system: Protein cereblon/Androgen receptor (Homo sapiens), P10275+Q96SW2 [UNDEFINED MUTATION]; experiment: PROTAC activity at CRBN/AR-V7 in human […] cells assessed as induction of AR degradation at 0.03 to 1 uM incubated for 24 hrs by Western blot analysis; type: cell-based; details: dose 0.03-1 µM
# [11] = biological target: T2, Protein cereblon/Androgen receptor (Homo sapiens) (UniProt P10275+Q96SW2); experiment: PROTAC activity at CRBN/full-length AR in human 22Rv1 cells assessed as induction of AR degradation at 0.03 to 1 uM incubated for 24 hrs by Western blot analysis; type: cell-based; details: dose 0.03-1 µM
# [12] = biological target: T2, Protein cereblon/Androgen receptor (Homo sapiens); experiment: PROTAC activity at CRBN/full-length AR in human […] cells assessed as induction of AR degradation at 0.03 to 1 uM incubated for 24 hrs by Western blot analysis; type: cell-based; details: dose 0.03-1 µM
# [13] = system: Protein cereblon/Androgen receptor (Homo sapiens), P10275+Q96SW2 [UNDEFINED MUTATION]; experiment: PROTAC activity at CRBN/AR-V7 in human 22Rv1 cells assessed as induction of AR degradation at 0.03 to 1 uM incubated for 24 hrs by Western blot analysis; type: cell-based; details: dose 0.03-1 µM
# PC-3 [14] = experiment: Cytotoxicity against human PC-3 cells assessed as cell death at high concentration incubated for 24 hrs; type: toxicity, cell-based; details: pc-3, 24 h
# [15] = Cytotoxicity against human PC-3 cells assessed as inhibition of cell growth incubated for 6 days; type: toxicity, cell-based
# [16] = biological target: T1, von Hippel-Lindau disease tumor suppressor/Androgen receptor; experiment: PROTAC activity at VHL/AR-V7 in human 22Rv1 cells assessed as induction of AR degradation by Immunoblot analysis; type: cell-based
# Target sequence in this assay (P10275 whole entry, looked up, change not shown): as the sequence (P10275 whole entry, looked up) above
# Target sequence in this assay (P40337 whole entry, looked up, change not shown): as the sequence (P40337 whole entry, looked up) above
# LNCaP [17] = experiment: Antitumor activity against human LNCaP cells xenografted in NOD SCID mouse assessed as tumor growth inhibition at 180 mg/kg, po administered daily for 4 weeks relative to control; type: functional; details: 672 h, read-out: TGI
# VCaP = experiment: Antiproliferative activity against human VCaP cells assessed as reduction in cell viability incubated for 6 days by CCK-8 assay; type: functional, cell-based; details: 144 h
# LNCaP [18] = experiment: Inhibition of colony formation in human LNCaP cells at 1 to 10 uM incubated for 2 weeks by crystal violet staining based analysis; type: functional, cell-based; details: dose 1-10 µM
# LNCaP [19] = experiment: Antiproliferative activity against human LNCaP cells assessed as reduction in cell viability incubated for 6 days by CCK-8 assay; type: functional, cell-based; details: 144 h
# CWR22R [20] = experiment: Antiproliferative activity against enzalutamide-resistant human 22Rv1 cells assessed as reduction in cell viability incubated for 6 days by CCK-8 assay; type: functional, cell-based; details: 22Rv1, 144 h
# CWR22R [21] = experiment: Inhibition of colony formation in human 22Rv1 cells at 1 to 10 uM incubated for 2 weeks by crystal violet staining based analysis; type: functional, cell-based; details: dose 1-10 µM
# [22] = Clearance in ICR mouse at 2 mg/kg, iv measured by LC-MS/MS analysis; type: ADME, organism-based; details: in vivo
# [23] = Tmax in ICR mouse at 10 mg/kg, po measured by LC-MS/MS analysis; type: ADME, organism-based; details: in vivo
# [24] = Cmax in ICR mouse at 2 mg/kg, iv measured by LC-MS/MS analysis; type: ADME, organism-based; design: dose 2 mg/kg, route iv; details: in vivo
# [25] = Tmax in ICR mouse at 2 mg/kg, iv measured by LC-MS/MS analysis; type: ADME, organism-based; details: in vivo
# [26] = Half-life in ICR mouse at 10 mg/kg, po measured by LC-MS/MS analysis; type: ADME, organism-based; details: in vivo
# [27] = Half-life in ICR mouse at 2 mg/kg, iv measured by LC-MS/MS analysis; type: ADME, organism-based; details: in vivo
# [28] = Oral bioavailability in ICR mouse at 10 mg/kg measured by LC-MS/MS analysis; type: ADME, organism-based; details: in vivo
# [29] = AUC(0 to t) in ICR mouse at 10 mg/kg, po measured by LC-MS/MS analysis; type: ADME, organism-based; design: dose 10 mg/kg, route po; details: in vivo
# [30] = Cmax in ICR mouse at 10 mg/kg, po measured by LC-MS/MS analysis; type: ADME, organism-based; design: dose 10 mg/kg, route po; details: in vivo
# [31] = AUC(0 to t) in ICR mouse at 2 mg/kg, iv measured by LC-MS/MS analysis; type: ADME, organism-based; design: dose 2 mg/kg, route iv; details: in vivo
# LNCaP [32] = experiment: Antitumor activity against human LNCaP cells xenografted in NOD SCID mouse assessed as tumor growth inhibition at 10 mg/kg, po administered daily for 4 weeks relative to control; details: 672 h, read-out: TGI
# RWPE-1 = experiment: Cytotoxicity against human RWPE-1 cells assessed as reduction in cell viability incubated for 6 days by CCK8 assay; type: toxicity, cell-based; details: rwpe-1, 144 h, time 6 day
# Sequence of Protein cereblon/Androgen receptor (Homo sapiens), P10275+Q96SW2 [UNDEFINED MUTATION] (P10275 whole entry, looked up, stated change not applied): as the sequence (P10275 whole entry, looked up) above
# Sequence of Protein cereblon/Androgen receptor (Homo sapiens), P10275+Q96SW2 [UNDEFINED MUTATION] (Q96SW2 whole entry, looked up, stated change not applied): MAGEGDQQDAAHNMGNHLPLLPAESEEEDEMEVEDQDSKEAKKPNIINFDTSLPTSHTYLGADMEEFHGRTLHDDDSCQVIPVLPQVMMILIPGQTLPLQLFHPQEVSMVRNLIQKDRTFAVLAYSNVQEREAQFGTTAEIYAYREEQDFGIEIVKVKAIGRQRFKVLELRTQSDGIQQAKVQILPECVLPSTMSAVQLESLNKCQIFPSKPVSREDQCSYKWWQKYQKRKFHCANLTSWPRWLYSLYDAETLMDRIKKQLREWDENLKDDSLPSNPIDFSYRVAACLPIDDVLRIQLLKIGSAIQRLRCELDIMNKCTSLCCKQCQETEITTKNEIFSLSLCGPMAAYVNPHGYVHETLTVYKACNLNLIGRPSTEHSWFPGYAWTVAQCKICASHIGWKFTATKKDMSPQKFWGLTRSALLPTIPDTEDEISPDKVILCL
# Sequence of von Hippel-Lindau disease tumor suppressor/Androgen receptor (Homo sapiens), P10275+P40337 [UNDEFINED MUTATION] (P10275 whole entry, looked up, change not shown): as the sequence (P10275 whole entry, looked up) above
# Sequence of von Hippel-Lindau disease tumor suppressor/Androgen receptor (Homo sapiens), P10275+P40337 [UNDEFINED MUTATION] (P40337 whole entry, looked up, change not shown): as the sequence (P40337 whole entry, looked up) above
# T2 sequence (P10275 whole entry, looked up): as the sequence (P10275 whole entry, looked up) above
# T2 sequence (Q96SW2 whole entry, looked up): as the sequence (Q96SW2 whole entry, looked up, stated change not applied) above
smiles,measurement,setting,value
Cc1ncsc1-c1ccc(CNC(=O)[C@@H]2C[C@@H](O)CN2C(=O)[C@@H](NC(=O)Cn2cc(CCCCOc3ccc(C(C)(C)c4ccc(OC[C@H](O)CCl)cc4)cc3)nn2)C(C)(C)C)cc1,Activity,[1],43.2%
same,Activity,[2],53.5%
same,Activity,[3],22%
same,Activity,[4],56.4%
same,Activity,[5],59.5%
same,Activity,[6],36.6%
CC(C)(c1ccc(OCC2CCN(CC3CCN(C4CCN(c5cccc6c5C(=O)N(C5CCC(=O)NC5=O)C6=O)CC4)CC3)CC2)cc1)c1ccc(OC[C@H](O)CCl)cc1 (stereo not given in full),Activity,CWR22R [7],Toxic
same,Activity,PC-3 [8],Toxic
Cc1ncsc1-c1ccc(CNC(=O)[C@@H]2C[C@@H](O)CN2C(=O)[C@@H](NC(=O)Cn2cc(CCCCCOc3ccc(C(C)(C)c4ccc(OC[C@H](O)CCl)cc4)cc3)nn2)C(C)(C)C)cc1,Activity,[1],48.9%
same,Activity,[2],39.6%
same,Activity,[3],27.5%
same,Activity,[4],38.1%
same,Activity,[5],48.2%
same,Activity,[6],31.9%
CC(C)(c1ccc(OCC2CCN(CC3CCN(CC4CCN(c5ccc6c(c5)C(=O)N(C5CCC(=O)NC5=O)C6=O)CC4)CC3)CC2)cc1)c1ccc(OC[C@H](O)CCl)cc1 (stereo not given in full),Activity,CWR22R [9],Toxic
same,Activity,[10],inactive
same,Activity,[11],inactive
same,Activity,[12],inactive
same,Activity,[13],inactive
same,Activity,PC-3 [14],Toxic
same,IC50 at 6 days,[15],1.37 µM
Cc1ncsc1-c1ccc([C@H](C)NC(=O)[C@@H]2C[C@@H](O)CN2C(=O)[C@@H](NC(=O)CCCCNC(=O)COc2c(-c3csc(N4CCOCC4)n3)ccc(F)c2F)C(C)(C)C)cc1,EC50,[16],0.37 µM
CC(C)(c1ccc(OCC2CCN(CC3CCN(C4CCN(c5ccc6c(c5)C(=O)N(C5CCC(=O)NC5=O)C6=O)CC4)CC3)CC2)cc1)c1ccc(OC[C@H](O)CCl)cc1 (stereo not given in full),Activity,CWR22R [9],Toxic
same,Activity,[10],inactive
same,Activity,[11],inactive
same,Activity,[12],inactive
same,Activity,[13],inactive
same,Activity,PC-3 [14],Toxic
same,IC50 at 6 days,[15],1.03 µM
CC(C)(c1ccc(OC[C@H](O)CO)cc1)c1ccc(OC[C@H](O)CCl)cc1,inhibition in vivo at 180 mg/kg,LNCaP [17],43%
same,IC50,VCaP,> 30 µM
same,inhibition,LNCaP [18],inactive
same,IC50,LNCaP [19],> 30 µM
same,IC50,CWR22R [20],> 30 µM
same,inhibition,CWR22R [21],inactive
CC(C)(c1ccc(OCC2CCN(CC3CN(C4CCN(c5cccc6c5C(=O)N(C5CCC(=O)NC5=O)C6=O)CC4)C3)CC2)cc1)c1ccc(OC[C@H](O)CCl)cc1 (stereo not given in full),clearance,[22],38.6 mL/min/kg
same,Tmax,[23],2 h
same,Cmax,[24],662 ng/mL
same,Tmax,[25],6 min
same,half-life,[26],20.5 h
same,half-life,[27],13.6 h
same,bioavailability,[28],12.3%
same,AUC(0-t),[29],332 ng·h/mL
same,Cmax,[30],47 ng/mL
same,AUC(0-t),[31],645 ng·h/mL
CNC(=O)c1ccc(N2C(=S)N(c3ccc(C#N)c(C(F)(F)F)c3)C(=O)C2(C)C)cc1F [ENZALUTAMIDE],inhibition in vivo at 10 mg/kg,LNCaP [32],72%
same,Activity,RWPE-1,Non-Toxic
CC(C)(c1ccc(OCC2CCN(CC3CCN(CC4CCN(c5cccc6c5C(=O)N(C5CCC(=O)NC5=O)C6=O)CC4)CC3)CC2)cc1)c1ccc(OC[C@H](O)CCl)cc1 (stereo not given in full),Activity,CWR22R [7],Toxic
same,Activity,PC-3 [8],Toxic
Cc1ncsc1-c1ccc(CNC(=O)[C@@H]2C[C@@H](O)CN2C(=O)[C@@H](NC(=O)Cn2cc(CCCOc3ccc(C(C)(C)c4ccc(OC[C@H](O)CCl)cc4)cc3)nn2)C(C)(C)C)cc1,Activity,[1],18.4%
same,Activity,[2],31%
same,Activity,[3],17.6%
same,Activity,[4],45.9%
same,Activity,[5],63.3%
same,Activity,[6],27.9%
CC(C)(c1ccc(OCC2CCN(C(=O)CCCNc3ccc4c(c3)C(=O)N(C3CCC(=O)NC3=O)C4=O)CC2)cc1)c1ccc(OC[C@H](O)CCl)cc1 (stereo not given in full),clearance,[22],111 mL/min/kg
same,Tmax,[23],0.2 h
same,Cmax,[24],518 ng/mL
same,Tmax,[25],6 min
same,half-life,[26],1.8 h
same,half-life,[27],0.5 h
same,bioavailability,[28],7.8%
same,AUC(0-t),[29],113 ng·h/mL
same,Cmax,[30],130 ng/mL
same,AUC(0-t),[31],303 ng·h/mL
